Data reported in PMC12090182, “Repurposing of the RIPK1-Selective Benzo[1,4]oxazepin-4-one Scaffold for the Development of a Type III LIMK1/2 Inhibitor” (ACS Chemical Biology, 2025).
Read-outs that look alike come from different tables or passages of the source.

Columns and labels:
Assay type in all cases: cell-based
[1] = test system: HEK293T cells; conditions: human
Experimental: (§1) To assess the influence on cell health, a high-content screening in living cells called the multiplex high-content assay, as described previously by Tjaden et al., was performed.[38] In brief, HEK293T (ATCC CRL-1573) and U2OS (ATCCHTB-96) were cultured in DMEM plus L-glutamine (high glucose) supplemented by 10% FBS (Gibco) and penicillin/streptomycin (Gibco). MRC-9 fibroblasts ([…]) were cultured in EMEM plus L-glutamine supplemented by 10% FBS (Gibco) and penicillin/streptomycin (Gibco). Cells were seeded at a density of 1250 cells per well in a 384-well plate in a culture medium (cell culture microplate, PS, f-bottom, μClear, 781091, Greiner), with a volume of 50 μL per well. All outer wells were filled with 100 μL of PBS buffer (Gibco). […] The cell shape and fluorescence were measured before treatment and 12, 24, and 48 h after compound treatment using the CQ1 high-content confocal microscope (Yokogawa, Musashino, Japan). […] The compounds were tested at 1 and 10 μM, respectively. Acquired images of the cells were processed using Yokogawa CellPathfinder software (v3.04.02.02). […] Results were normalized to cells exposed to 0.1% DMSO. All compounds were tested in biological duplicates, and SEM (standard error of mean) was calculated of biological duplicates.

[2] = test system: U2OS cells; conditions: human, 24 h, 1 µM
Experimental: as §1

[3] = test system: MRC-9 cells; test: Multiplex high-content viability assessment; conditions: human fibroblast
Experimental: as §1

[4] = 1 µM, 0 h, biological replicate 1
[5] = 1 µM, 12 h, biological replicate 1
[6] = 1 µM, 24 h, biological replicate 1
[7] = 1 µM, 48 h, biological replicate 1
[8] = 1 µM, 0 h after treatment, biological replicate 2
[9] = 1 µM, 12 h after treatment, biological replicate 2
[10] = 1 µM, 24 h after treatment, biological replicate 2
[11] = 1 µM, 48 h after treatment, biological replicate 2
[12] = 10 µM, 0 h, biological replicate 1
[13] = 10 µM, 12 h, biological replicate 1
[14] = 10 µM, 24 h, biological replicate 1
[15] = 10 µM, 48 h, biological replicate 1
[16] = 10 µM, 0 h after treatment, biological replicate 2
[17] = 10 µM, 12 h after treatment, biological replicate 2
[18] = 10 µM, 24 h after treatment, biological replicate 2
[19] = 10 µM, 48 h after treatment, biological replicate 2

Population with membrane disruption (%) ([1]; 0 h, 1 µM): 0.00% | Population with membrane disruption (%) ([1]; 0 h, 10 µM): 0.00% | Population with membrane disruption (%) ([1]; 24 h, 10 µM): 0.00% | Cell count per well [2]: 316
Compound: CCCCN(Cc1ccccc1)C(=O)c1ccc(S(=O)(=O)Nc2ccccc2)cc1 [TH257]
Cell count normalized to cells treated with DMSO control [3, 4]: 1.114 | Cell count per well [3, 4]: 167 | Population Fragmented Nuclei (%) [3, 4]: 8.59% | Population Healthy Nuclei (%) [3, 4]: 70.55% | Population Pyknosed Nuclei (%) [3, 4]: 20.86% | Population apoptotic cell (%) [3, 4]: 41.18% | Population cell that influence microtubule strucutre (%) [3, 4]: 18.26% | Population with increased mitochondrial mass (%) [3, 4]: 10.43% | Population with membrane disruption (%) [3, 4]: 0.87% | Cell count normalized to cells treated with DMSO control [3, 5]: 1.0759 | Cell count per well [3, 5]: 162 | Population Fragmented Nuclei (%) [3, 5]: 8.18% | Population Healthy Nuclei (%) [3, 5]: 74.84% | Population Pyknosed Nuclei (%) [3, 5]: 16.98% | Population apoptotic cell (%) [3, 5]: 37.04% | Population cell that influence microtubule strucutre (%) [3, 5]: 23.53% | Population with increased mitochondrial mass (%) [3, 5]: 5.88% | Population with membrane disruption (%) [3, 5]: 1.68% | Cell count normalized to cells treated with DMSO control [3, 6]: 1.074 | Cell count per well [3, 6]: 162 | Population Fragmented Nuclei (%) [3, 6]: 8.86% | Population Healthy Nuclei (%) [3, 6]: 76.58% | Population Pyknosed Nuclei (%) [3, 6]: 14.56% | Population apoptotic cell (%) [3, 6]: 43.48% | Population cell that influence microtubule strucutre (%) [3, 6]: 23.97% | Population with increased mitochondrial mass (%) [3, 6]: 5.79% | Population with membrane disruption (%) [3, 6]: 0.00% | Cell count normalized to cells treated with DMSO control [3, 7]: 1.094 | Cell count per well [3, 7]: 166 | Population Fragmented Nuclei (%) [3, 7]: 14.56% | Population Healthy Nuclei (%) [3, 7]: 76.58% | Population Pyknosed Nuclei (%) [3, 7]: 8.86% | Population apoptotic cell (%) [3, 7]: 64.29% | Population cell that influence microtubule strucutre (%) [3, 7]: 20.66% | Population with increased mitochondrial mass (%) [3, 7]: 0.83% | Population with membrane disruption (%) [3, 7]: 0.83% | Cell count normalized to cells treated with DMSO control [3, 8]: 1.076 | Cell count per well [3, 8]: 192 | Population Fragmented Nuclei (%) [3, 8]: 13.26% | Population Healthy Nuclei (%) [3, 8]: 56.35% | Population Pyknosed Nuclei (%) [3, 8]: 30.39% | Population apoptotic cell (%) [3, 8]: 34.55% | Population cell that influence microtubule strucutre (%) [3, 8]: 45.10% | Population with increased mitochondrial mass (%) [3, 8]: 3.92% | Population with membrane disruption (%) [3, 8]: 7.84% | Cell count normalized to cells treated with DMSO control [3, 9]: 1.0446 | Cell count per well [3, 9]: 174 | Population Fragmented Nuclei (%) [3, 9]: 19.08% | Population Healthy Nuclei (%) [3, 9]: 51.97% | Population Pyknosed Nuclei (%) [3, 9]: 28.95% | Population apoptotic cell (%) [3, 9]: 25.00% | Population cell that influence microtubule strucutre (%) [3, 9]: 64.56% | Population with increased mitochondrial mass (%) [3, 9]: 13.92% | Population with membrane disruption (%) [3, 9]: 7.59% | Cell count normalized to cells treated with DMSO control [3, 10]: 0.9402 | Cell count per well [3, 10]: 155 | Population Fragmented Nuclei (%) [3, 10]: 16.78% | Population Healthy Nuclei (%) [3, 10]: 57.34% | Population Pyknosed Nuclei (%) [3, 10]: 25.87% | Population apoptotic cell (%) [3, 10]: 35.14% | Population cell that influence microtubule strucutre (%) [3, 10]: 70.73% | Population with increased mitochondrial mass (%) [3, 10]: 4.88% | Population with membrane disruption (%) [3, 10]: 13.41% | Cell count per well [3, 11]: 166 | Population Fragmented Nuclei (%) [3, 11]: 32.10% | Population Healthy Nuclei (%) [3, 11]: 49.38% | Population Pyknosed Nuclei (%) [3, 11]: 18.52% | Population apoptotic cell (%) [3, 11]: 50.00% | Population cell that influence microtubule strucutre (%) [3, 11]: 76.25% | Population with increased mitochondrial mass (%) [3, 11]: 3.75% | Population with membrane disruption (%) [3, 11]: 8.75% | Cell count normalized to cells treated with DMSO control [3, 12]: 1.048 | Cell count per well [3, 12]: 157 | Population Fragmented Nuclei (%) [3, 12]: 18.47% | Population Healthy Nuclei (%) [3, 12]: 59.24% | Population Pyknosed Nuclei (%) [3, 12]: 22.29% | Population apoptotic cell (%) [3, 12]: 34.29% | Population cell that influence microtubule strucutre (%) [3, 12]: 23.66% | Population with increased mitochondrial mass (%) [3, 12]: 3.23% | Population with membrane disruption (%) [3, 12]: 0.00% | Cell count normalized to cells treated with DMSO control [3, 13]: 1.149 | Cell count per well [3, 13]: 173 | Population Fragmented Nuclei (%) [3, 13]: 12.35% | Population Healthy Nuclei (%) [3, 13]: 58.02% | Population Pyknosed Nuclei (%) [3, 13]: 29.63% | Population apoptotic cell (%) [3, 13]: 35.42% | Population cell that influence microtubule strucutre (%) [3, 13]: 80.85% | Population with increased mitochondrial mass (%) [3, 13]: 13.83% | Population with membrane disruption (%) [3, 13]: 4.26% | Cell count normalized to cells treated with DMSO control [3, 14]: 1.094 | Cell count per well [3, 14]: 165 | Population Fragmented Nuclei (%) [3, 14]: 16.25% | Population Healthy Nuclei (%) [3, 14]: 66.25% | Population Pyknosed Nuclei (%) [3, 14]: 17.50% | Population apoptotic cell (%) [3, 14]: 57.14% | Population cell that influence microtubule strucutre (%) [3, 14]: 88.68% | Population with increased mitochondrial mass (%) [3, 14]: 11.32% | Population with membrane disruption (%) [3, 14]: 1.89% | Cell count normalized to cells treated with DMSO control [3, 15]: 1.18 | Cell count per well [3, 15]: 179 | Population Fragmented Nuclei (%) [3, 15]: 23.84% | Population Healthy Nuclei (%) [3, 15]: 63.37% | Population Pyknosed Nuclei (%) [3, 15]: 12.79% | Population apoptotic cell (%) [3, 15]: 72.73% | Population cell that influence microtubule strucutre (%) [3, 15]: 85.32% | Population with increased mitochondrial mass (%) [3, 15]: 20.18% | Population with membrane disruption (%) [3, 15]: 0.92% | Cell count normalized to cells treated with DMSO control [3, 16]: 0.8298 | Cell count per well [3, 16]: 148 | Population Fragmented Nuclei (%) [3, 16]: 24.82% | Population Healthy Nuclei (%) [3, 16]: 45.39% | Population Pyknosed Nuclei (%) [3, 16]: 29.79% | Population apoptotic cell (%) [3, 16]: 47.62% | Population cell that influence microtubule strucutre (%) [3, 16]: 40.63% | Population with increased mitochondrial mass (%) [3, 16]: 9.38% | Population with membrane disruption (%) [3, 16]: 3.13% | Cell count normalized to cells treated with DMSO control [3, 17]: 0.8645 | Cell count per well [3, 17]: 144 | Population Fragmented Nuclei (%) [3, 17]: 24.46% | Population Healthy Nuclei (%) [3, 17]: 56.83% | Population Pyknosed Nuclei (%) [3, 17]: 18.71% | Population apoptotic cell (%) [3, 17]: 50.00% | Population cell that influence microtubule strucutre (%) [3, 17]: 86.08% | Population with increased mitochondrial mass (%) [3, 17]: 13.92% | Population with membrane disruption (%) [3, 17]: 12.66% | Cell count normalized to cells treated with DMSO control [3, 18]: 0.8917 | Cell count per well [3, 18]: 147 | Population Fragmented Nuclei (%) [3, 18]: 25.18% | Population Healthy Nuclei (%) [3, 18]: 59.71% | Population Pyknosed Nuclei (%) [3, 18]: 15.11% | Population apoptotic cell (%) [3, 18]: 57.14% | Population cell that influence microtubule strucutre (%) [3, 18]: 91.57% | Population with increased mitochondrial mass (%) [3, 18]: 19.28% | Population with membrane disruption (%) [3, 18]: 4.82% | Cell count normalized to cells treated with DMSO control [3, 19]: 0.964 | Cell count per well [3, 19]: 157 | Population Fragmented Nuclei (%) [3, 19]: 30.32% | Population Healthy Nuclei (%) [3, 19]: 59.35% | Population Pyknosed Nuclei (%) [3, 19]: 10.32% | Population apoptotic cell (%) [3, 19]: 56.25% | Population cell that influence microtubule strucutre (%) [3, 19]: 89.13% | Population with increased mitochondrial mass (%) [3, 19]: 18.48% | Population with membrane disruption (%) [3, 19]: 0.00%
